The numbers were not newly measured in patent publication US20100092556A1, “ALFUZOSIN FORMULATIONS, METHODS OF MAKING, AND METHODS OF USE” (priority 2006, published 2010), which cites them from elsewhere.

Each structure is given as a SMILES string. Counter-ions that a name gives are not always drawn.

The conditions of series [1]: oral administration.

For `COc1cc2nc(N(C)CCCNC(=O)C3CCCO3)nc(N)c2cc1OC` (racemic) [alfuzosin, (R,S)—N-[3-[(4-amino-6,7-dimethoxy-2-quinazolinyl)methylamino]propyl]tetrahydro-2-furancarboxamide], in series [1], the “administered dose excreted unchanged in the urine” value is 11%.
As to `COc1cc2nc(N(C)CCCNC(=O)C3CCCO3)nc(N)c2cc1OC` (racemic) [Alfuzosin hydrochloride, (R,S)—N-[3-[(4-amino-6,7-dimethoxy-2-quinazolinyl)methylamino]propyl]tetrahydro-2-furancarboxamide hydrochloride], the solubility in alcohol result is given as “sparingly soluble”, the solubility in dichloromethane result is given as “practically insoluble” and the solubility in water result is given as “freely soluble”.
